Results as given in patent US8614242B2, “1-(heterocyclic carbonyl)-2-substituted pyrrolidines” (Bayer Intellectual Property GmbH, priority 2010, dated 2013).

Legend:
[1] = logP by HPLC on reversed-phase column (EEC Directive 79/831 Annex V.A8); type: physicochemical; conditions: HPLC on reversed-phase column (C 18), 40° C., 0.1% aqueous formic acid and acetonitrile, linear gradient 10% to 90% acetonitrile
Procedure: In table 1, the logP values were determined in accordance with EEC Directive 79/831 Annex V.A8 by HPLC (High Performance Liquid Chromatography) on a reversed-phase column (C 18), using the method described below: Temperature: 40° C.; Mobile phases: 0.1% aqueous formic acid and acetonitrile; linear gradient from 10% acetonitrile to 90% acetonitrile. Calibration was carried out using unbranched alkan-2-ones (comprising 3 to 16 carbon atoms) with known logP values (determination of the logP values by the retention times using linear interpolation between two successive alkanones). lambda-max-values were determined using UV-spectra from 200 nm to 400 nm and the peak values of the chromatographic signals.

Pyrenophora teres = experiment: In vivo preventive test on Pyrenophora teres (barley); conditions: 500 ppm of active ingredient, evaluated 7-9 days after inoculation
Procedure: The plants remain for 48 hours in an incubation cabinet at 22° C. and a relative atmospheric humidity of 100%.

Alternaria solani = experiment: In vivo preventive test on Alternaria solani (tomato); conditions: 500 ppm of active ingredient, evaluated 7 days after inoculation
Procedure: The plants remain for one day in an incubation cabinet at approximately 22° C. and a relative atmospheric humidity of 100%. Then the plants are placed in an incubation cabinet at approximately 20° C. and a relative atmospheric humidity of 96%.

Sphaerotheca fuliginea = experiment: In vivo preventive test on Sphaerotheca fuliginea (cucumber); conditions: 500 ppm of active ingredient, evaluated 7 days after inoculation

Row | Structure (SMILES) | logP [1] | Efficacy (Pyrenophora teres) | Efficacy (Alternaria solani) | Efficacy (Sphaerotheca fuliginea)
1 | Cn1nc(C(F)F)c(C(=O)N2CCCC2c2ccc(-c3ccccc3)cc2)c1F (centres unmarked) [Example 29] | 3.50 | 100% | 95% | –
2 | COc1ccc(C2CCCN2C(=O)c2c(C(F)F)nn(C)c2F)cc1 (centres unmarked) [Example 4] | 2.42 | – | 80% | –
3 | Cc1ccccc1C1CCCN1C(=O)c1c(C(F)F)nn(C)c1F (centres unmarked) [Example 2] | 2.75 | 100% | 90% | 95%
4 | Cn1nc(C(F)F)c(C(=O)N2CCCC2c2cccc(Br)c2)c1Cl (centres unmarked) [Example 33] | 3.06 | 100% | 95% | –
5 | Cn1nc(C(F)F)c(C(=O)N2CCCC2c2cc(Cl)cc(Cl)c2)c1F (centres unmarked) [Example 28] | 3.35 | 100% | 95% | 100%
6 | Cn1nc(C(F)F)c(C(=O)N2CCCC2c2ccc(Cl)cc2Cl)c1F (centres unmarked) [Example 22] | 3.44 | 95% | 100% | 91%
7 | Cn1nc(C(F)F)c(C(=O)N2CCCC2c2ccc(C(C)(C)C)cc2)c1F (centres unmarked) [Example 13] | 3.74 | 100% | 100% | 93%
8 | Cn1nc(C(F)F)c(C(=O)N2CCCC2c2ccccc2Br)c1F (centres unmarked) [Example 32] | 2.98 | 100% | 95% | 95%
9 | Cn1nc(C(F)F)c(C(=O)N2CCCC2c2ccc(Cl)cc2)c1F (centres unmarked) [Example 8] | 2.90 | 100% | 100% | –
10 | Cn1nc(C(F)F)c(C(=O)N2CCCC2c2ccc(Cl)c(Cl)c2)c1F (centres unmarked) [Example 26] | 3.23 | 100% | 95% | 95%
11 | COc1ccccc1C1CCCN1C(=O)c1c(C(F)F)nn(C)c1F (centres unmarked) [Example 3] | 2.59 | – | 80% | –
12 | Cn1nc(C(F)F)c(C(=O)N2CCCC2c2ccc(Cl)cc2)c1Cl (centres unmarked) [Example 7] | 3.04 | 70% | 95% | –
13 | Cn1nc(C(F)F)c(C(=O)N2CCCC2c2cc(Cl)cc(Cl)c2)c1Cl (centres unmarked) [Example 27] | 3.50 | 95% | 95% | 70%
14 | Cn1nc(C(F)F)c(C(=O)N2CCCC2c2cc(C(F)(F)F)cc(C(F)(F)F)c2)c1Cl (centres unmarked) [Example 40] | 3.79 | 95% | 95% | –
15 | Cn1nc(C(F)F)c(C(=O)N2CCCC2c2ccc(C(F)(F)F)cc2)c1Cl (centres unmarked) [Example 20] | 3.25 | 70% | 70% | –
16 | Cn1nc(C(F)F)c(C(=O)N2CCCC2c2ccccc2Cl)c1Cl (centres unmarked) [Example 5] | 3.04 | 80% | 80% | –
17 | Cn1nc(C(F)F)c(C(=O)N2CCCC2c2ccc(C(C)(C)C)cc2)c1Cl (centres unmarked) [Example 12] | 3.90 | 95% | 90% | –
18 | Cn1nc(C(F)F)c(C(=O)N2CCCC2c2ccc(Cl)cc2Cl)c1Cl (centres unmarked) [Example 23] | 3.57 | 100% | 95% | –
19 | Cc1ccccc1C1CCCN1C(=O)c1c(C(F)F)nn(C)c1Cl (centres unmarked) [Example 1] | 2.90 | 80% | 80% | –
20 | Cn1nc(C(F)F)c(C(=O)N2CCCC2c2ccccc2Br)c1Cl (centres unmarked) [Example 31] | 3.09 | 95% | 90% | –
21 | Cn1nc(C(F)F)c(C(=O)N2CCCC2c2ccccc2C(F)(F)F)c1F (centres unmarked) [Example 15] | 3.09 | 100% | 95% | –
22 | Cn1nc(C(F)F)c(C(=S)N2CCCC2c2cccc(C(F)(F)F)c2)c1Cl (centres unmarked) [Example 19] | 3.79 | 100% | – | –
23 | Cn1nc(C(F)F)c(C(=O)N2CCCC2c2ccccc2C(F)(F)F)c1Cl (centres unmarked) [Example 14] | 3.19 | 90% | 95% | –
24 | Cn1nc(C(F)F)c(C(=O)N2CCCC2c2ccc(-c3ccccc3)cc2)c1Cl (centres unmarked) [Example 30] | 3.65 | 100% | – | –
25 | Cn1nc(C(F)F)c(C(=O)N2CCCC2c2cc(F)cc(F)c2)c1Cl (centres unmarked) [Example 9] | 2.82 | 90% | – | –
26 | Cn1nc(C(F)F)c(C(=O)N2CCCC2c2ccc3c(c2)OCO3)c1F (centres unmarked) [Example 11] | 2.35 | 70% | – | –
27 | Cn1nc(C(F)F)c(C(=O)N2CCCC2c2ccc(Cl)c(Cl)c2)c1Cl (centres unmarked) [Example 25] | 3.37 | 95% | 95% | –

Further lines, with some results ahead:

Row | logP [1] | Structure (SMILES) | Efficacy (Pyrenophora teres) | Efficacy (Alternaria solani) | Efficacy (Sphaerotheca fuliginea)
28 | 3.52 | Cn1nc(C(F)F)c(C(=O)N2CCCC2Cc2cccc3ccccc23)c1F (racemic) [Example 83] | 100% | 100% | –
29 | 4.06 | CC(c1ccc(Cl)cc1Cl)C1CCCN1C(=O)c1c(C(F)F)nn(C)c1Cl (mixture of isomers) [Example 72] | – | – | –
30 | 1.14 | Cn1nc(C(F)F)c(C(=O)N2CCCC2c2ccc3ncccc3c2)c1F (centres unmarked) [Example 47] | – | – | –
31 | 4.36 | Cn1nc(C(F)F)c(C(=O)N2CCC[C@H]2COc2c(Cl)cc(Cl)cc2Cl)c1Cl [Example 81] | – | – | 100%
32 | 1.50 | Cn1nc(C(F)F)c(C(=O)N2CCCC2c2cnc3ccccc3c2)c1F (centres unmarked) [Example 46] | – | – | –
33 | 2.20 | Cn1nc(C(F)F)c(C(=O)N2CCCC2CS(=O)(=O)c2ccccc2)c1Cl (racemic) [Example 88] | – | – | –
34 | 3.39 | Cn1nc(C(F)F)c(C(=O)N2CCCC2Cc2ccc(Br)cc2)c1F (racemic) [Example 80] | 100% | 100% | 89%
35 | 4.46 | Cn1nc(C(F)F)c(C(=S)N2CCCC2Cc2cccc(Cl)c2Cl)c1F (racemic) [Example 70] | 100% | 95% | –
36 | 2.39 | Cn1nc(C(F)F)c(C(=O)N2CCCC2c2cccs2)c1F (centres unmarked) [Example 45] | 95% | 90% | –
37 | 2.49 | Cn1nc(C(F)F)c(C(=O)N2CCCC2c2nc3ccccc3s2)c1F (centres unmarked) [Example 51] | 95% | – | –
38 | 2.13 | Cn1nc(C(F)F)c(C(=O)N2CCCC2c2ccco2)c1F (centres unmarked) [Example 42] | – | – | –
39 | 3.02 | Cn1nc(C(F)F)c(C(=O)N2CCCC2CCc2ccccc2)c1F (racemic) [Example 84] | 100% | 90% | –
40 | 2.13 | Cn1nc(C(F)F)c(C(=O)N2CCCC2CS(=O)(=O)c2ccccc2)c1F (racemic) [Example 87] | – | – | –
41 | 3.52 | CC(c1c(Cl)cccc1Cl)C1CCCN1C(=O)c1c(C(F)F)nn(C)c1F (mixture of isomers) [Example 78] | – | – | –
42 | 3.81 | CC(c1c(Cl)cccc1Cl)C1CCCN1C(=O)c1c(C(F)F)nn(C)c1Cl (mixture of isomers) [Example 79] | – | – | –
43 | 3.96 | CC(c1cc(Cl)ccc1Cl)C1CCCN1C(=O)c1c(C(F)F)nn(C)c1Cl (mixture of isomers) [Example 74] | – | – | –
44 | 4.24 | Cn1nc(C(F)F)c(C(=O)N2CCCC2Cc2ccc(C(C)(C)C)cc2)c1F (racemic) [Example 68] | 100% | 94% | –
45 | 3.87 | CC(c1ccc(Cl)cc1Cl)C1CCCN1C(=O)c1c(C(F)F)nn(C)c1F (mixture of isomers) [Example 71] | – | – | –
46 | 2.61 | Cn1nc(C(F)F)c(C(=O)N2CCCC2c2nc3ccccc3s2)c1Cl (centres unmarked) [Example 50] | – | – | –
47 | 0.48 | Cn1nc(C(F)F)c(C(=O)N2CCCC2c2cccnc2)c1F (centres unmarked) [Example 44] | – | – | –
48 | 3.46 | CC(c1ccccc1Cl)C1CCCN1C(=O)c1c(C(F)F)nn(C)c1Cl (mixture of isomers) [Example 63] | – | – | –
49 | 3.08 | Cn1nc(C(F)F)c(C(=O)N2CCCC2c2cccc3ccccc23)c1F (centres unmarked) [Example 41] | 90% | – | 75%
50 | 3.25 | Cn1nc(C(F)F)c(C(=O)N2CCCC2c2cc3ccccc3s2)c1Cl (centres unmarked) [Example 49] | 95% | – | –
51 | 0.92 | Cn1nc(C(F)F)c(C(=O)N2CCCC2c2ccccn2)c1F (centres unmarked) [Example 43] | – | – | –
52 | 3.29 | Cn1nc(C(F)F)c(C(=O)N2CCC[C@H]2COc2ccc(Cl)cc2)c1F [Example 85] | – | – | –
53 | 3.11 | Cn1nc(C(F)F)c(C(=O)N2CCCC2c2cc3ccccc3s2)c1F (centres unmarked) [Example 48] | 100% | – | 93%
54 | 3.50 | Cn1nc(C(F)F)c(C(=O)N2CCCC2Cc2c(Cl)cccc2Cl)c1Cl (racemic) [Example 75] | 100% | 90% | –
55 | 3.76 | CC(c1cc(Cl)ccc1Cl)C1CCCN1C(=O)c1c(C(F)F)nn(C)c1F (mixture of isomers) [Example 73] | – | – | –
56 | 3.44 | Cn1nc(C(F)F)c(C(=O)N2CCC[C@H]2COc2ccc(Cl)cc2)c1Cl [Example 86] | – | – | –
57 | 3.29 | CC(c1ccccc1Cl)C1CCCN1C(=O)c1c(C(F)F)nn(C)c1F (mixture of isomers) [Example 62] | – | – | –
